Reference: US10758522B2, “Small molecule analogs of the nemo binding peptide” (THE SCRIPPS RESEARCH INSTITUTE, priority 2015, dated 2020)

Experiments:
[1] = Degradation in the presence of serum; format: in vitro ADME; conditions: data not shown
[2] = molecular target: T1, IKK complex (IKKß, IKKα and NEMO) (Homo sapiens, UniProt Q9Y6K9); assay: Co-immunoprecipitation of NEMO with IKKß in 293 cells; format: cell-based; conditions: Zinc-5 at 4 hours, Zinc-13 at 1 hour, NBD peptide at 4 hours
T1 construct: analyzed by Western blot for the level of co-precipitated NEMO; endogenous in cells; host or cells: 293 (HEK293) cells
T1 sequence (Q9Y6K9 whole entry, one chain of several): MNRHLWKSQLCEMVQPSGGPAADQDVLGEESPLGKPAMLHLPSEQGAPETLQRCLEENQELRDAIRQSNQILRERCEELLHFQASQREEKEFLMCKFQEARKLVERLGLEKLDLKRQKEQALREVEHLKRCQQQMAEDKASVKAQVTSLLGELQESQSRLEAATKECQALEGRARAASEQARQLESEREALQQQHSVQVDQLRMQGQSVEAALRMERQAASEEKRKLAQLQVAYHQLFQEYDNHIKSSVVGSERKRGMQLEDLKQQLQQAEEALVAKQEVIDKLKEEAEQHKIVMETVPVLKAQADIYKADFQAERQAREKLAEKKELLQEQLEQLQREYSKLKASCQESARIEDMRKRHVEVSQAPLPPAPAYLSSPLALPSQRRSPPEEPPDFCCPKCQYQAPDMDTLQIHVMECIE
Source text: FIG. 8 is a bar graph showing the inhibition of TNFα by NBDA-1 (Zinc-13). […] In addition, we have examined the ability of the compounds to disrupt the IKK complex, comprised of IKKß, IKKα and NEMO.
A non-functional, related compound Zinc-7 had no effect.

NF-κB [3] = assay: EMSA of NF-κB DNA binding in skeletal muscle of mdx mice after acute treatment; format: in vivo, mouse; conditions: single ip injection at 10 mg/kg, 1 and 2 hours post-treatment
Experimental: We also tested the compounds for their ability to inhibit NF-κB activity acutely in a murine model of disease. For these experiments, a mouse model of Duchenne muscular dystrophy, which has elevated NF-κB activity in muscle, was treated with Zinc-13 (NBDA-1) and Zinc-5 (NBDA-2) and the level of NF-κB activity determined by gel shift analysis at 1 and 2 hours post-treatment.
(§1) To confirm that the NBD mimetics reduce IKK activity, the extent of phosphorylation of the IKK target, IκBα, in response to 10 ng/ml of TNF-α was determined by Western blot at 0, 5 and 10 min after TNF-α stimulation. […] To determine if the mimetics also reduce NF-κB DNA binding activity, electrophoretic mobility shift assay (EMSA) was conducted both in vivo and in vitro.
(§2) Cytoplasmic and nuclear fractions were extracted using the NE-PER nuclear and cytoplasmic extraction reagents (ThermoFisher) according to the manufacturer's instructions. The gel shift assay was performed by following the previously described method (41). In brief, 5 μg of nuclear extract was incubated with gel shift binding buffer and an α-^32P-deoxycytodine triphosphate-radiolabeled NF-κB probe for 20 min at room temperature (MP Biomedicals). The oligonucleotide sequences are as follows: NF-κB template, 5′-[…]-3′; NF-κB annealing, 5′-[…]-3′. The reaction product was separated on a 6% non-denaturing polyacrylamide gel.

p-IκBα = assay: Western blot of IκBα phosphorylation after TNF-α; format: cell-based; conditions: 10 ng/ml TNF-α, 0, 5 and 10 min; 100 μM compound
Experimental: as §1
HEK293 cells grown in a 6-well plate at 1×10^6 cells/well were left untreated or treated with 100 μM of ZINC12909780 or ZINC3369392 for 30 min, followed by 10 ng/ml of TNFα for 0, 5 and 10 min. Cells were then harvested for western blot. Cell lysate was prepared in RIPA buffer (20 mM Tris-HCl (pH 7.5), 150 mM NaCl, 1 mM Na^2EDTA, 1 mM EGTA, 1% NP-40, 1% sodium deoxycholate, 2.5 mM sodium pyrophosphate, 1 mM beta-glycerophosphate, 1 mM Na3VO4, 1 μg/ml leupeptin, 1× protease inhibitor cocktails (sigma) and 1× Halt phosphatase inhibitor cocktail (Thermo)). 30 ug of protein was resolved by MINI-PROTEAN TGX 4-15% SDS-PAGE. Blots were blocked in 5% non-fat milk. Primary antibodies were incubated at 4° C. overnight and secondary antibodies were incubated at room temperature for 1 hour. Anti-p-IκBα (1:1000 CST) and anti-IκBα (1:2000 CST) were used to assess NF-κB activation. Anti-GAPDH (1:5000 CST) was used as a loading control.

HEK293 cells = assay: MTT cell viability assay; format: cell-based
Experimental: To identify NBD mimetics with higher biological activity than compound 12909780 or the NBD peptide, we next screened the ZINC 10.0 database (approximately 3.5 million compounds) in silico for structurally similar compounds (24).
Cell viability was calculated by normalizing values to untreated control.

mdx mice = assay: Chronic treatment of mdx mice (Duchenne muscular dystrophy model); format: in vivo, mouse; conditions: chronic treatment with the ZINC compounds
Source text: Mdx mice develop normally at birth, and then undergo a massive myonecrosis starting at three weeks. Treatment of mdx mice with IKK/NF-kB inhibitors effectively reduces inflammation, block necrosis and increase muscle regeneration. Mdx mice were chronically treated with vehicle, SR12343, SR12460 or 8K-NBD starting from day 21, 3 times/week for 4 weeks. […] To determine if SR12343 and SR12460 improve muscle pathology, tibialis anterior (TA) muscle was stained with hematoxylin and eosin (H&E) to assess inflammatory infiltration, necrosis, central nucleation and fibrosis. […] Fiber size in centrally nucleated and non-centrally nucleated myofibers was also smaller in mice treated with SR12343 and 8K-NBD, indicating active reconstruction of myofiber during the regenerative phase.
To determine muscle strength post-treatment, grip strength test on forelimbs was performed 2 weeks and 4 weeks post-treatment.
HEK293 cells were grown in Dulbecco's Modification of Eagles Medium (with 4.5 g/L glucose and L-glutamine), supplemented with 10% fetal bovine serum, penicillin and streptomycin. Raw264.7 cells were cultured in RPMI-1640 media containing 10% heat-inactivated fetal bovine serum, penicillin and streptomycin. C57BL/10ScSn-Dmd^mdx/J and female C57BL/6 mice were purchased from the Jackson Laboratory. Mice were housed in the animal facilities of Scripps Fla. under constant temperature and humidity. Animal protocols used in this study were approved by Scripps Fla. Institutional Animal Care and Use Committees. Three week-old sex-matched mdx mice were dosed with SR12343 (30 mg/kg), […] (30 mg/kg), 8K-NBD peptide (10 mg/kg) or vehicle by intraperitoneal (i.p.) injection 3 times per week for 4 weeks. Mice were sacrificed at 7 weeks of age by carbon dioxide inhalation and tibialis anterior was collected for histological analysis.
Seven week-old treated or untreated mdx mice were measured for forelimb grip strength using a digital grip strength meter paired with a metal grid (Bioseb). Mice were allowed to grip the metal grid tightly and readings were obtained by gently pulling the tail backward until release. Five sequential measurements were performed and the average force was calculated.
Tissues fixed in 10% neutral buffered formalin (NBF) overnight were imbedded in paraffin. Tissue was sectioned at […] using a microtome. H&E staining was conducted following a standard protocol (REF).

NF-κB [4] = assay: Firefly luciferase NF-κB reporter assay in TNF-α-stimulated HEK293 cells; format: cell-based; conditions: for inhibition of TNF-α-induced NF-κB activation (luciferase reporter), in words: 293 NF-κB luciferase reporter cells, 10 ng/ml TNF-α, compound 12909780 at 100 μM
Experimental: This model was used to screen a subset of the drug-like ZINC 8.0 database set (˜900,000 compounds) (Irwin et al., 2005). We were able to identify 161 hits that matched at least 6 features out of eight of the pharmacophore model. […] Two compounds termed NBDA-1 (Zinc-13) and NBDA-2 (Zinc-5), successfully passed these filters (See FIG. 4) and were purchased for biological testing. The compounds were then tested for ability to inhibit TNF-alpha-mediated induction of NF-κB activity in a 293 cells stably modified with a NF-κB luciferase reporter.
The activation of NF-κB was then quantitated by measuring the level of luciferase activity. […] Also, protein extracts were prepared from the same cells and the level of phospho-IkB determined, a marker of IKK activity.
To test if the small molecules identified by the in silico screen inhibit NF-κB activation, a HEK293 cell line stably expressing a luciferase reporter driven by a synthetic, NF-κB-dependent promoter was utilized. To induce NF-κB activation, cells were treated with 10 ng/ml of TNF-α and harvested three hours post-treatment for analysis of luciferase activity. […] To determine if compound 12909780 inhibited NF-κB in a dose dependent manner, concentrations were tested at 0, 6.25, 25, 50 and 100 μM.
HEK293 cells stably transfected with luciferase reporter plasmid driven by NF-κB were seeded in 96-well plate in triplicate and pretreated with DMSO or varying small molecules at indicated concentration for 30 min, followed by the stimulation of 10 ng/ml of TNFα for 3 hr. Cell were washed with PBS once and harvested in passive lysis buffer. Luciferase assay (Promega) was performed using a luminometer according to the manufacturer's instructions.

NF-κB [5] = assay: EMSA of NF-κB DNA binding in C2C12 cells; format: cell-based, mouse; conditions: 200 μM
Experimental: as §1, §2

O=C(COC(=O)Cc1ccccc1F)Nc1ccc(Cl)cn1 [ZINC5, 2-(2-fluorophenyl)acetic-acid-[2-[(5-chloro-2-pyridyl)amino]-2-keto-ethyl]-ester]
degradation in the presence of serum [1]: rapid degradation in the presence of serum | level of NEMO co-immunoprecipitated with IKKß [2]: reduced the level of co-immunoprecipitated NEMO | NF-κB DNA binding activity in quadriceps of mdx mice (NF-κB [3]; 10 mg/kg): inhibited NF-κB DNA binding activity in quadriceps | NF-κB DNA binding activity in quadriceps of mdx mice (NF-κB [3]; listed as Zinc-5, 10 mg/kg): reduced NF-κB DNA binding activity in the skeletal muscle (quadricep) | level of phospho-IκBα / phosphorylation of IkB (p-IκBα): reduced the level of p-IκBα dramatically | cell death / toxicity (MTT assay) (HEK293 cells; HEK293, 24 hours): less than 10% | cell toxicity, in words (HEK293 cells; at 50 and 100 μM): no cell toxicity observed | therapeutic benefit of chronic treatment of mdx mice (mdx mice): showed no therapeutic benefit | dose-dependent inhibition of TNF-α-induced NF-κB activation, in words (NF-κB [4]; 0, 6.25, 25, 50 and 100 μM): greater extent of inhibitory effect compared to compound 12909780 | inhibition of TNF-α-induced NF-κB activation (luciferase reporter), in words (NF-κB [4]; listed as Zinc5): lowered NF-κB activity robustly | inhibition of TNF-α-induced NF-κB activation (luciferase reporter), in words (NF-κB [4]; listed as Zinc-5): able to inhibit TNF-alpha mediated activation of NF-κB, as or more efficiently as the NBD peptide | TNFα-induced NF-κB DNA binding activity (EMSA) (NF-κB [5]): significantly decreased TNFα-induced NF-κB DNA binding activity
